# Measured values published in article PMC13184981, “Discovery and Development of a Potent LIMK2 Isoform-Specific Degrader” (ACS Chemical Biology, 2026).
# Key:
# phospho-Cofilin (pCFL) = assay: Western blot of phospho-cofilin in HuCCT1 cells; format: cell-based, human; settings: HuCCT1, 6 h
# Method: HuCCT1 cell line was cultured in Roswell Park Memorial Institute (RPMI) 1640 medium supplemented with GlutaMAX, 10% fetal bovine serum (FBS), and 1% penicillin/streptomycin. The cell line was maintained in an incubator with 5% CO2 at 37 °C. For the treatment, 3 × 10^5 cells were plated and treated with the compounds and DMSO as the control for 6 h. The cells were then lysed using RIPA buffer (50 mM Tris-HCl pH 7.4, 150 mM NaCl, 1% Triton X-100, 1% NaDOC, 0.1% SDS, 1 mM EDTA), freshly supplemented with protease and phosphatase inhibitor cocktails (Sigma-Aldrich, Darmstadt, Germany). After 1 h incubation on ice, the lysates were centrifuged for 30 min at […], and the protein-containing supernatant was collected. The protein concentrations were determined using Protein Assay Dye Reagent Concentrate (Bradford, Bio-Rad, Hercules, CA, USA) and Pre-Diluted Protein Assay Standards: Bovine Serum Albumin (BSA) Set (Thermo Fisher Scientific, Darmstadt, Germany). Then, equal amounts of protein was mixed with Roti-Load 1 dye (Carl Roth, Karlsruhe, Germany) and 4x Laemmli Buffer (Bio-Rad, Hercules, CA, USA), denatured at 95 °C, and run on NuPAGE 4–12% bis-Tris gels (Thermo Fisher Scientific). Proteins were blotted on methanol-activated PVDF Transfer Membranes (Thermo Fisher Scientific) using the wet transfer method with the transfer buffer (Thermo Fisher Scientific) and 20% methanol. […]
# [1] = Microsomal stability assay; format: in vitro ADME; settings: rat liver microsomes
# Method: The solubilized test compound (5 μL, final concentration 10 μM) was preincubated at 37 °C in 432 μL of 0.1 M phosphate buffer (pH 7.4) together with 50 μL of an NADPH-regenerating system containing 30 mM glucose-6-phosphate, 4 U/mL glucose-6-phosphate dehydrogenase, 10 mM NADP, and 30 mM MgCl2. After 5 min, the reaction was initiated by adding 13 μL of rat liver microsomes (Sprague–Dawley, Invitrogen; 20 mg mL^–1 protein in 0.1 M phosphate buffer) and incubated in a shaking water bath at 37 °C. The reaction was quenched at 0, 15, 30, and 60 min by adding 500 μL of ice-cold methanol. Samples were centrifuged at 5,000 × g for 5 min at 4 °C, and the supernatants were analyzed by HPLC to quantify the remaining parent compound. HPLC conditions were as follows: mobile phase composed of methanol (40–90%) and water with 0.1% formic acid (10–60%), optimized for the test compound; flow rate 1 mL/min; stationary phase Purospher STAR RP-18 column (5 μm, 125 × 4 mm) with a guard column (5 μm, 4 × 4 mm); detection wavelengths at 254 and 280 nm; injection volume 50 μL. […] Compound concentrations were determined using an external calibration curve. Data are expressed as mean ± SEM of the remaining parent compound from three independent experiments.
# EGFP–LIMK2 = target: T1, EGFP–LIMK2 (Homo sapiens, UniProt P53671); assay: EGFP-LIMK2 depletion live-cell assay (Incucyte); format: cell-based
# T1 construct: P2A remnant (from EGFP-LIMK2-P2A-mCherry; that residues stay on LIMK2 after self-cleavage is own knowledge) (C); expressed in transfected cells; host or cells: HuCCT1 (lentiviral transduction, doxycycline-inducible pCW57 vector)
# T1 sequence (P53671 whole entry): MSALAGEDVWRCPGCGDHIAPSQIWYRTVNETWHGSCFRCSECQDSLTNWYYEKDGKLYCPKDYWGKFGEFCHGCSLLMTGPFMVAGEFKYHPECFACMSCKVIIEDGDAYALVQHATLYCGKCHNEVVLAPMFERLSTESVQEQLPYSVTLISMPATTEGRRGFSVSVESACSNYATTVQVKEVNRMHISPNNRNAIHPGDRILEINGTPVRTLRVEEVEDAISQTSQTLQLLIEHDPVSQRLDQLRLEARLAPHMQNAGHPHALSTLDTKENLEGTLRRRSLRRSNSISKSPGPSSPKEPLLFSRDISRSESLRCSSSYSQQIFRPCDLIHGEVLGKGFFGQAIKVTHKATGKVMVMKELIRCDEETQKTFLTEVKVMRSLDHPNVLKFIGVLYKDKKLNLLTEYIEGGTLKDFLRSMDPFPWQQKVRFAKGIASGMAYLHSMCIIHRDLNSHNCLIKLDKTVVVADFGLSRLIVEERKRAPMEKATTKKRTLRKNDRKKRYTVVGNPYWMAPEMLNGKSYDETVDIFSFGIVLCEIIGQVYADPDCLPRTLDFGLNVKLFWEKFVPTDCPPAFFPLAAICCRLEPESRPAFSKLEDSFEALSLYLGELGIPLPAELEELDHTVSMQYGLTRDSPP
# LIMK2 = LIMK2 (Homo sapiens, UniProt P53671); assay: NanoBRET cellular target engagement, LIMK2; format: cell-based; design: host or cells: HEK293T
# Chain of LIMK2 (P53671 whole entry): as above
# Method: Gene encoding LIMK1 (Promega, NV3391) and LIMK2 (Promega, NV1531), CRBN (Promega, N2741) proteins cloned in frame with NanoLuc fusion tag at the C-terminus, were transfected into HEK293T cells using FuGENE HD (Promega, E2312) following manufacture’s protocol and proteins were allowed to express for 20 h at 37 °C and 5% CO2. […] The 10 μL of transfected cells after trypsinization and resuspending in Opti-MEM (Life Technologies, 31985070) were dispensed into each well of the 384-well plate (Greiner 781207) at a cell density of 2 × 10^5 cells/mL. For dose–response BRET measurements, compounds at various concentrations, immediately followed by Tracer K10 (Promega, Tracer DB ID: T000008) for LIMK1 and LIMK2, CRBN Tracer (Promega, Tracer DB ID: T000018) for CRBN at an optimum KD concentration chosen from TracerDB (tracerdb.org), were pipetted using an Echo acoustic dispenser (Labcyte). The system was allowed to equilibrate for 2 h at 37 °C and 5% CO2 before BRET measurements. To measure BRET signal, the NanoBRET NanoGlo Substrate (Promega, N1573) was added as per the manufacturer’s protocol, and filtered luminescence was measured on a PHERAstar plate reader (BMG Labtech) equipped with a luminescence filter pair (450 nm BP filter (donor) and 610 nm LP filter (acceptor)). For lysed NanoBRET measurement, 25 nL of Digitonin (0.05 μg/μL) was pipetted to each well using Labcyte, and the plate was incubated for 5 min at 37 °C and 5% CO2. After incubation, the BRET signals were measured by a PHERAstar plate reader following the same procedure as intact NanoBRET measurement. […] The BRET ratios are normalized to both of them in the prism output data file. Competitive displacement data were then normalized to controls and were graphed using GraphPad Prism 9 software employing a normalized 3-parameter curve fit with the following equation: Y = 100/(1 + 10̂(X – logIC50)).
smiles,measurement,setting,value
Cc1c(OCc2cn(CCCCC(=O)Nc3ncc(-c4cc(C(F)F)nn4-c4c(Cl)cccc4Cl)s3)nn2)cccc1N1CCC(=O)NC1=O [22b],pCFL levels (Western blot),phospho-Cofilin (pCFL),no significant changes in pCFL
same,metabolic stability (in words),[1],favorable metabolic stability
same,parent PROTAC remaining,"[1]; 60 min, 10 μM, HPLC",85%
same,Dmax,EGFP–LIMK2; 0.01 nM PROTAC,4.5%
same,Dmax,EGFP–LIMK2; 10000 nM PROTAC,96.1%
same,IC50,LIMK2,80 nM
same,LIMK2 binary IC50 stronger than LIMK1,"LIMK2; NanoBRET, LIMK2 vs LIMK1",5 fold
